Data from patent publication US20250261636A1, “QUATERNARY AMMONIUM SANITIZING COMPOSITION” (ECOLAB USA INC., priority 2020, published 2025).
Several values for one entry are separate records, joined by “and”; a condition that tells them apart may be missing. Equal values may be shown once.

Experiments:
[1] = system: Escherichia coli ATCC 11229; assay: AOAC Method 960.09 Germicidal and Detergent Sanitizing Action of Disinfectants, food contact sanitizing suspension test; assay type: cell-based; conditions: for Log Reduction: per replicate
Protocol: (§1) The microbial efficacy of the multipurpose sanitizing composition was evaluated for food contact applications. The purpose of the testing is to determine the efficacy of compositions used for sanitizing food contact surfaces, which in the evaluations were pre-cleaned, non-porous surfaces using AOAC Method 960.09 Germicidal and Detergent Sanitizing Action of Disinfectants. […] The test organisms included Staphylococcus aureus ATCC 6538 and Escherichia coli ATCC 11229.
(§2) The pH was adjusted by use of a polycarboxylic acid (unless otherwise noted, such as the polycarboxylate citrate tested at pH 8). In this screening test pH 9, 8, 7, 5, 4, and 3 were tested. “NT” indicates a condition was “Not Tested.”

[2] = system: Staphylococcus aureus ATCC 6538; assay: as above; assay type: cell-based; conditions: 30 ppm, pH 5, 120° F.
Protocol: as §1, §2

`CCCCCCCCCC[N+](C)(C)CCCCCCCCCC.[Cl-]` [Bardac 2250, didecyl dimethyl ammonium chloride] was tested, and the “Average Log Reduction” value ([1]; 30 ppm, pH 5, 120° F.) was 6.83 log, the “Average Log Reduction” value ([1]; 30 ppm, pH 7, 120° F.) was 3.33 log and the “CFU - Dilution 1E−01” value ([1]; 30 ppm, pH 7, 120° F.) was “TNTC”. For the same molecule, the “CFU - Dilution 1E−02” value ([1]; 30 ppm, pH 7, 120° F.) was “TNTC”, the CFU/mL ([1]; 30 ppm, pH 7, 120° F.) was 3.00E+04 CFU/mL and the “Log Reduction” value ([1]; 30 ppm, pH 7, 120° F.) was 3.33 log. For the same molecule, the “Average Log Reduction” value ([1]; 30 ppm, pH 9, 120° F.) was 3.33 log, the “CFU - Dilution 1E−01” value ([1]; 30 ppm, pH 9, 120° F.) was “TNTC” and the “CFU - Dilution 1E−02” value ([1]; 30 ppm, pH 9, 120° F.) was “TNTC”. For the same molecule, the CFU/mL ([1]; 30 ppm, pH 9, 120° F.) was 3.00E+04 CFU/mL, the Log ([1]; 30 ppm, pH 9, 120° F.) was 4.48 and the “Log Reduction” value ([1]; 30 ppm, pH 9, 120° F.) was 3.33 log. For the same molecule, the “Average Log Reduction” value ([1]; 40 ppm, pH 7, 120° F.) was 5.02 log, the “Average Log Reduction” value ([1]; 40 ppm, pH 9, 120° F.) was 4.63 log and the “CFU - Dilution 1E−01” value ([1]; 40 ppm, pH 9, 120° F.) was 192 CFU and 120 CFU. For the same molecule, the “CFU - Dilution 1E−02” value ([1]; 40 ppm, pH 9, 120° F.) was 12 CFU and 14 CFU, the CFU/mL ([1]; 40 ppm, pH 9, 120° F.) was 1.85E+03 CFU/mL and 1.22E+03 CFU/mL and the Log ([1]; 40 ppm, pH 9, 120° F.) was 3.27 and 3.09. The “Log Reduction” value ([1]; 40 ppm, pH 9, 120° F.) was 4.54 log and 4.72 log, the “log reduction E. coli (ATCC 11229)” value ([1]; 50 ppm, pH 7, 120° F.) was 6.71 log and the “log reduction S. aureus (ATCC 6538)” value [2] was 6.88 log.
For `CCCCCCCC[N+](C)(C)CCCCCCCC.[Cl-]` [Bardac LF, dioctyl dimethyl ammonium chloride], the “Average Log Reduction” value ([1]; 30 ppm, pH 5, 120° F.) was 3.06 log, the “CFU - Dilution 1E−01” value ([1]; 30 ppm, pH 5, 120° F.) was “TNTC” and the “CFU - Dilution 1E−02” value ([1]; 30 ppm, pH 5, 120° F.) was “TNTC”. The CFU/mL ([1]; 30 ppm, pH 5, 120° F.) was 3.0E+04 CFU/mL, the Log ([1]; 30 ppm, pH 5, 120° F.) was 4.48 and the “Log Reduction” value ([1]; 30 ppm, pH 5, 120° F.) was 3.06 log. For the same molecule, the “Average Log Reduction” value ([1]; 30 ppm, pH 7, 120° F.) was 3.06 log, the “log reduction E. coli (ATCC 11229)” value ([1]; 60 ppm, pH 5, 120° F.) was 3.06 log and the “log reduction E. coli (ATCC 11229)” value ([1]; 60 ppm, pH 7, 120° F.) was 3.06 log. The “log reduction E. coli (ATCC 11229)” value ([1]; 90 ppm, pH 5, 120° F.) was 3.06 log and the “log reduction E. coli (ATCC 11229)” value ([1]; 90 ppm, pH 7, 120° F.) was 3.06 log.
